Bounds are passed on as bounds.

Broadly, the melting point is the temperature of the solid-liquid transition. With `CCC1(CCCCN2CCN(c3ccccn3)CC2)C(=O)Nc2ccc(C)cc21` (stereo not drawn), the melting point was in the range of 168 to 170 °C.

The compound `CC(=NC#N)N[C@@H]1c2cc(C#N)ccc2OC(C)(C)[C@H]1O` (relative stereo) displayed a melting point of 236 to 238 °C.

On to `CCCOc1ccccc1-c1nc(O)cc(C(=O)O)n1`, for which the melting point fell in the range of 180 to 182 °C.

Turning to `COc1cc(F)c(C2CNCc3ccsc32)cc1OC` (stereo not drawn), the melting point was 108 to 111 °C.

`CCOC(=O)c1c(C)n(-c2ccccc2)c(C)c(C(=O)OCc2ccccc2)c1=O` had a melting point of 142 °C.

Turning to `C#CCN(C)c1c(-c2c(F)cc(F)cc2F)c(C#N)nc2ncnn12`, the melting point came out at 147 °C.

For `CON1CCC2(CC1)C(O)=C(c1c(C)cc(C)cc1C)C(=O)N2C`, the melting point was 171 to 178 °C.

Compound `Cc1cc(C)nc(NC(=O)Cc2cccn2C)c1` came in with a melting point of 85 °C.

`COc1cc2nc(N3CCc4ccc([N+](=O)[O-])cc4C3)nc(N)c2cc1OC` came in with a melting point of 135 to 137 °C.

`Cc1nc(C)n(-c2cc([C@@H]3C[C@H]3c3nc4ccccc4n3C)nc(C3CC3)n2)n1` (relative stereo): the melting point fell in the range of 180 to 182 °C.

In the case of `COC(=O)C1=C(C)NC(C)=C(C(=O)O)C1c1ccccc1Cl` (stereo not drawn), the melting point was 210 °C.

Turning to `O=[N+]([O-])C(CN1CCN(c2ccccc2)CC1)c1ccccc1` (stereo not drawn), the melting point is 76 °C.

`CC(=O)Oc1cccc(-c2c3ccccc3c(Br)c3sc4ccccc4c23)c1`: the melting point is 74 to 76 °C.

The compound `O=C(O)COc1ccc(C(=O)c2ccc([N+](=O)[O-])cc2)c(Cl)c1Cl` showed a melting point of 172 to 175 °C.

Compound `Cc1ccc(C(=O)Nc2cccc(C(F)(F)F)c2)cc1/C=C/n1cnc2c(NC3CC3)ncnc21` had a melting point of 201 °C.

For `CC(C)COc1c(-c2ccc(S(N)(=O)=O)c(F)c2)cnn(CC(F)(F)F)c1=O`, the melting point lay within 163 to 164 °C.

For `CC(C)c1ccc(C(=O)C2CCc3ccccc3C2)c(C(C)C)c1OS(N)(=O)=O` (stereo not drawn), the melting point is 137 to 139 °C.

The compound `O=C1NC2(C(=O)CCl)C=CC1C2` (stereo not drawn) had a melting point of 86 to 88 °C.

`CCOC(=O)c1nn(-c2ccc(Cl)cc2Cl)c(-c2ccc(Cl)cc2)c1C#N` had a melting point of 112 °C.

In the case of `O=C1CCC2=C1C(c1ccc(F)c(I)c1)C1=C(CCS1)N2` (stereo not drawn), the melting point was over 250 °C.

As for `CO/C(=C\C=C\c1cc2ccccc2s1)C(=O)NC1CC(C)(C)N(C)C(C)(C)C1`, the melting point came out at 240 °C.

Take `CC(C)(C)OC(=O)C[C@H](NC(=O)CCCC(=O)Nc1ccc(C#N)cc1)C(=O)N[C@@H](Cc1ccccc1)C(=O)OC(C)(C)C`: the melting point lay within 64 to 66 °C.

Turning to `CCC1C(=O)Nc2ccc3ccccc3c21` (stereo not drawn), the melting point lay within 124 to 126 °C.

Take `Cc1ncccc1Cn1c(CO)nc(C(C)C)c1Sc1cc(Cl)cc(Cl)c1`: the melting point was 127 °C.

Take `CCOC(=O)c1cc2cc(C(F)(F)F)cnc2n1Cc1ccccc1`: the melting point is 72 to 73 °C.

Compound `CCCCCCCCCCCCCCCCCCOc1cc(OCCCP(=O)(OCC)OCC)cc(C(=O)O)c1` came in with a melting point of 53 to 55 °C.

In turn, `Cc1nc2c(O)c(C(=O)[C@H](O)[C@@H](O)c3ccccc3)ccc2n1C1CC1` returned a melting point of 120 °C.

Turning to `COc1ccc(C(O)CSCc2ccncc2)cc1` (stereo not drawn), the melting point was in the range of 70 to 72.5 °C.

As for `Cc1cccc(-c2cccc(OC3SCC(O)C(O)C3O)c2)n1` (stereo not drawn), the melting point worked out at 143 °C.

`CN(C)CCCNC(=O)c1ccc(-c2nnc(CSCCCOc3ccccc3)o2)cc1` yielded a melting point of 77 to 80 °C.

In the case of `Cc1cc(Oc2c(Cl)cc(C(F)(F)F)cc2Cl)n[nH]1`, the melting point fell in the range of 153 to 155 °C.

For `Nc1n[nH]c2cccc(I)c12`, the melting point was 153 °C.

The compound `Cc1nc(CCc2nc3ccc(F)cc3c(=O)n2-c2cccnc2C)cs1` registered a melting point of 151 to 153 °C.

As for `CC(=O)S[C@@H]1CCO[C@@H](c2ccccc2)O1` (relative stereo), the melting point is 95 to 96 °C.

Regarding `Cn1c(C(F)(F)F)cc(=O)n(-c2ccc(Cl)c3c2OC(C)(C)C3)c1=O`, the melting point is 152 to 153 °C.

Take `Nc1ccc(Cc2ccc(C3(c4ccc(Cc5ccc(N)cc5)cc4)CCCCC3)cc2)cc1`: the melting point fell in the range of 154 to 156 °C.

`CCc1[nH]n(C2CCCC2)c2nc(-c3cccc(OCC(=O)O)c3)nc(=O)c1-2` displayed a melting point of 299 to 300 °C.

For the compound `COc1cn(-c2cccc(C(F)(F)F)c2)nc(-n2ccnc2-c2ccccc2)c1=O`, the melting point fell in the range of 167 to 170 °C.

Consider `COC(=O)c1ccc(SCc2cccc(Cl)c2)cn1`, for which the melting point was 75 to 77 °C.

As for `O=C1c2ccccc2C(=O)N1Cc1cc([N+](=O)[O-])cc([N+](=O)[O-])c1`, the melting point came to 171 °C.

`CCOC(=O)C(=NOC)c1csc2cc(F)ccc12` displayed a melting point of 84.5 to 86 °C.

Regarding `CCCc1nc2cccc(C(O)=S)c2n1Cc1ccc(-c2ccccc2-c2nc(=O)o[nH]2)cc1`, the melting point is 220 to 221 °C.

As for `CN(C(=O)c1cc(C(F)(F)F)cc(C(F)(F)F)c1)C(CC(=O)O)Cc1ccc2ccccc2c1` (stereo not drawn), the melting point fell in the range of 128 to 130 °C.

On to `CCN1CCO[C@]2(C)c3cccc4[nH]cc(c34)C[C@@H]12` (relative stereo), for which the melting point is 129 to 130 °C.

With `OC(Cc1ncc[nH]1)(Cn1cncn1)c1ccc(Cl)cc1Cl` (stereo not drawn), the melting point fell in the range of 168 to 170 °C.

Take `Cc1nc2ccccc2n1CCOCCCl`: the melting point fell in the range of 96 to 98 °C.

`C=CCC1=C(C)C(OC(=O)C2C(C=CC(C)=O)C2(C)C)CC1=C` (stereo not drawn) yielded a melting point of under 50 °C.

Compound `CC(=O)Nc1snc(C)c1[N+](=O)[O-]` had a melting point of 210 °C.

Compound `COc1c(C=NO)c(=O)n(C)c(=O)n1C` had a melting point of 127 to 128 °C.

As for `O=C(Nc1c[nH]nc1C(=O)NCCCO)c1ccccn1`, the melting point fell in the range of 209 to 211 °C.

On to `CCOC(=O)C(=NOC)C(C)=NNC(C)=O`, for which the melting point lay in the range of 190 to 192 °C.

In turn, `CCCCCC(=O)c1c(CSc2nccn2C)nc2cc(OC)c(OC)cc2c1-c1ccc(OC)c(OC)c1` displayed a melting point of 128 to 129 °C.

For `OCCCCc1ccc(OCc2ccccc2)cc1`, the melting point is 59 to 60 °C.

Regarding `NC(=O)C12CCCN(CCC1)C2`, the melting point fell in the range of 172 to 175 °C.

`O=S(=O)(c1ccc(F)cc1)N1CCCC1c1ccc(C(F)(F)F)cc1` (racemic) showed a melting point of 114 °C.

`CCC(OC)(c1cccc(O)c1)c1nccs1` (stereo not drawn) registered a melting point of 101 to 103 °C.

For the compound `Cn1c(=O)c2ncn(CCCCCC(=O)O)c2n(C)c1=O`, the melting point turned out to be 177 °C.

Regarding `N#Cc1ccc(N2C(=O)N(CC#CCO)C(CF)(CF)C2=O)cc1C(F)(F)F`, the melting point was 131 to 132 °C.

Take `CCOC(=O)C(=CNC1CC1)C(=O)c1cc(F)c(N2CCC(NC(C)=O)C2)nc1Cl` (stereo not drawn): the melting point fell in the range of 71 to 75 °C.

The compound `CC(=O)OCC1OC(SCC#N)C(OC(C)=O)C(OC(C)=O)C1OC(C)=O` (stereo not drawn) gave a melting point of 97 °C.

`Cc1oc(-c2ccccc2)nc1COc1ccc2c(-c3ccccc3)c(COc3nn(-c4ccccc4)cc3CO)oc2c1` had a melting point of 118 to 119 °C.

`CCOC(=O)C1=C(C)N2CCNC2=C(C(=O)OCC)C1c1cccc2ccccc12` (stereo not drawn) came in with a melting point of 169 to 170 °C.

`CN(C(=O)c1cccc(S(=O)(=O)N(C)c2ccc(S(C)=O)cc2)c1)c1ccc(Cl)cc1F` (stereo not drawn): the melting point fell in the range of 104 to 106 °C.

As to `CC(C)(Sc1cc(C(C)(C)C)c(O)c(C(C)(C)C)c1)Sc1cc(C(C)(C)C)c(OCCC(O)C(O)CCO)c(C(C)(C)C)c1` (stereo not drawn), the melting point fell in the range of 75 to 77 °C.

`CC(C)C1=NCCSC1=NO`: the melting point is 167 to 169 °C.

As for `N#Cc1ccc(NC(=O)CBr)cc1`, the melting point was in the range of 166 to 168 °C.

In turn, `Cc1cc(-c2nnc3c4ccccc4c(OCc4cn(C)cn4)nn23)no1` gave a melting point of 208 to 209 °C.

`CCOC(=O)C(=O)c1ccc(OCC(=O)c2c(C)cc(C)cc2C)cc1`: the melting point fell in the range of 68.5 to 70 °C.

Compound `COc1ccc2c(c1)C(=O)N(c1ccc3ncsc3c1)C2` returned a melting point of 204 to 207 °C.

As for `CC(O)CNCc1nc2cc(-c3ccccc3)nnc2c2ccccc12` (stereo not drawn), the melting point was in the range of 161 to 162 °C.

The compound `Clc1cc(-c2ccccc2)ncn1` had a melting point of 95 to 98 °C.

In turn, `Cc1cc(NC(=O)c2c(Cl)cccc2Cl)c2nccc(-n3ccnc3)c2c1` gave a melting point of 260 to 261 °C.

Turning to `Cn1c(C(=O)OCc2cc(C(F)(F)F)cc(C(F)(F)F)c2)c(-c2ccccc2)c2ccccc2c1=O`, the melting point lay in the range of 153 to 154 °C.

In turn, `Cc1oncc1C(=O)N1CCOCC1` registered a melting point of 42 to 44 °C.

Compound `OC(CCl)CN(CC(O)CCl)c1ccccc1` (stereo not drawn) showed a melting point of 60 °C.

`CCC(C(=O)N(C)C)n1ccc(-c2ccccc2)n1` (stereo not drawn) registered a melting point of 101 to 103 °C.

The compound `CCNc1nc2n(n1)CCc1ccccc1-2` displayed a melting point of 100 to 101 °C.

In turn, `Nc1cc(OCC2CC2)c(C(=O)NC2CN3CCC2CC3)cc1Cl` (stereo not drawn) registered a melting point of 183 to 185 °C.

`CCOCCn1c(C(=O)C2CCN(CCC3(c4ccccn4)CCN(C(=O)c4cc(OC)c(OC)c(OC)c4)C3)CC2)nc2ccccc21` (stereo not drawn) registered a melting point of 50 to 55 °C.

`COC(=O)Cn1cnc2c(C)c[nH]c2c1=O` gave a melting point of 233 to 235 °C.

`COCCN1CCN(CCc2ccc(Nc3ncc4c(n3)-c3ccccc3C(c3ccccc3C(F)(F)F)C4)cc2)CC1` (stereo not drawn) gave a melting point of 139 to 140 °C.

For the compound `O=C(NC1CCN(CCCOc2ccccc2-c2nnn[nH]2)CC1)c1ccccc1`, the melting point was 275 to 277 °C.

`CCCCCCCCCCc1cc2c(s1)NC(=O)CN=C2c1ccccc1C` gave a melting point of 100 to 102 °C.

`CC(=O)NC(C)(C)CNc1c(C)c(C)n2nnnc2c1[N+](=O)[O-]` came in with a melting point of 200 to 202 °C.

`CC1(C)OC[C@H]([C@@H](CS(=O)(=O)c2ccc(Oc3ccc(C(F)(F)F)cc3)cc2)N(O)C=O)O1`: the melting point lay in the range of 141 to 143 °C.

`C=CC(Cc1ccccc1)(C(=O)O)N(Cc1ccccc1)C(=O)OCc1ccccc1` (stereo not drawn) registered a melting point of 68 to 70 °C.

As to `N#Cc1ccc2c(c1)NC(=O)C2c1ncnc2c1cnn2C1CCCCC1` (stereo not drawn), the melting point was over 300 °C.

In turn, `O=S(=O)(CC(O)(CBr)c1cccc(Br)c1)c1ccccc1` (stereo not drawn) came in with a melting point of 132 °C.

The values are drawn from a melting point compilation (Tetko et al.; mined from patent text by program, amines drawn as free bases though some values may be those of a salt).
